Like-named read-outs stand apart in the source and are kept apart here.
Key:
[1] = biological target: PD-L1 His protein / PD-1 Fc protein (Homo sapiens (Human), UniProt Q9NZQ7); assay: HTRF Assay (PD-1/PD-L1 interaction); type: binding
human PD-L1 = human PD-L1 (Homo sapiens (Human), UniProt Q9NZQ7); assay: T cell activation luciferase reporter cell culture system (T Cell Activation Assay); type: cell-based
[2] = luciferase reporter assay, PD-L1 aAPC/CHO-K1 cells with PD-1 effector Jurkat T cells

human PD-L1, sequence (Q9NZQ7 19-290): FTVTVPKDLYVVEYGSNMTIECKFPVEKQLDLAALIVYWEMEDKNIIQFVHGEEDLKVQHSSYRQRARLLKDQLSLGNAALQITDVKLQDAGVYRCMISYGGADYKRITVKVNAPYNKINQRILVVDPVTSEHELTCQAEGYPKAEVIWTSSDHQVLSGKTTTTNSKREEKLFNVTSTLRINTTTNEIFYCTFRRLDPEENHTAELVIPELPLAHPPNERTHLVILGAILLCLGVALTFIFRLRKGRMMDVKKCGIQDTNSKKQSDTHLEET
PD-L1 His protein / PD-1 Fc protein, sequence (Q9NZQ7 19-238): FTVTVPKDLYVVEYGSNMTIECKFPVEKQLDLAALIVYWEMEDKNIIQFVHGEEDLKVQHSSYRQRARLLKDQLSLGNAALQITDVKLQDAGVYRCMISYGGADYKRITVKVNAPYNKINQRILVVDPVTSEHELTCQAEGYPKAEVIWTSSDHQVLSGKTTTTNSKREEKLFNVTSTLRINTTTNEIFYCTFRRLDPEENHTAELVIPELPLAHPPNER

Row | Compound | IC50 ([1]; PD-L1 His 6 nM, PD-1 Fc 6 nM) [nM] | EC50 (human PD-L1; [2]) [nM] | IC50 [1] [nM] | EC50 (human PD-L1) [nM]
1 | COc1cc(-c2nccc(-c3cccc(-c4ccc(CNCCNC(C)=O)c(OC)n4)c3Cl)c2Cl)ccc1CNCCNC(C)=O | 1.39 | 70.2 | – | –
2 | COc1cc(-c2nccc(-c3cccc(-c4ccc(CN(C)C5CCN(C(C)=O)CC5)c(OC)n4)c3Cl)c2Cl)ccc1CNC1CCN(C(C)=O)CC1 | 3.12 | 49.1 | – | –
3 | 1-(6-((6-(2-Chloro-3-(3-chloro-2-(3-methoxy-4-((6-(2-methoxyacetyl)-2,6-diazaspiro[3.3]heptan-2-yl)methyl)phenyl)pyridin-4-yl)phenyl)-2-methoxypyridin-3-yl)methyl)-2,6-diazaspiro[3.3]heptan-2-yl)-2-methoxyethan-1-one [Example 594] | – | – | 0.17 | 33.7
4 | 2-(4-(3-Chloro-4-(2-chloro-3-(5-methoxy-6-((7-oxo-2,6-diazaspiro[3.4]octan-2-yl)methyl)pyridin-3-yl)phenyl)pyridin-2-yl)-2-methoxybenzyl)-2,6-diazaspiro[3.4]octan-7-one [Example 566] | 0.93 | 341 | – | –
5 | COc1nc(-c2cccc(-c3ccnc(-c4ccc5c(c4)CCCC5NC[C@@H]4CCC(=O)N4)c3Cl)c2Cl)ccc1CNC[C@@H]1CCC(=O)N1 (mixture of isomers) [Compound 112, (5S)-5-((((6-(2-chloro-3-(3-chloro-2-(5-((((S)-5-oxopyrrolidin-2-yl)methyl)amino)-5,6,7,8-tetrahydronaphthalen-2-yl)pyridin-4-yl)phenyl)-2-methoxypyridin-3-yl)methyl)amino)methyl)pyrrolidin-2-one] | 1 | 50.5 | – | –
6 | COc1nc(-c2cccc(-c3ccnc(-c4ccc5c(c4)CCCC5NC[C@H](C)O)c3Cl)c2Cl)ccc1CNC[C@@H]1CCC(=O)N1 (mixture of isomers) [Compound 113, (5S)-5-((((6-(2-chloro-3-(3-chloro-2-(5-(((S)-2-hydroxypropyl)amino)-5,6,7,8-tetrahydronaphthalen-2-yl)pyridin-4-yl)phenyl)-2-methoxypyridin-3-yl)methyl)amino)methyl)pyrrolidin-2-one] | 0.7 | 185 | – | –
7 | COc1cc(-c2nccc(-c3ccnc(-c4ccc(CNC[C@@H]5CCC(=O)N5)c(OC)c4)c3Cl)c2Cl)ccc1CNC[C@@H]1CCC(=O)N1 [Compound 4, (5S,5′S)-5,5′-(((((3,3′-dichloro-[4,4′-bipyridine]-2,2′-diyl)bis(2-methoxy-4,1-phenylene))bis(methylene))bis(azanediyl))bis(methylene))bis(pyrrolidin-2-one)] | 8.3 | 96.3 | – | –
8 | CN1CCNCc2ccc(-c3nccc(-c4cccc(-c5ccc6c(CNC[C@@H]7CCC(=O)N7)cn(C)c6n5)c4Cl)c3Cl)cc21 [Compound 9, (S)-5-((((6-(2-chloro-3-(3-chloro-2-(1-methyl-2,3,4,5-tetrahydro-1H-benzo[e][1,4]diazepin-8-yl)pyridin-4-yl)phenyl)-1-methyl-1H-pyrrolo[2,3-b]pyridin-3-yl)methyl)amino)methyl)pyrrolidin-2-one] | 15.5 | 212 | – | –
9 | COc1nc(-c2ccnc(-c3cccc4c3CC[C@@H]4Oc3nc(OC)c(CNC[C@@H]4CCC(=O)N4)cc3C(F)(F)F)c2Cl)ccc1CNC1CCN(C(C)=O)CC1 [Example 544, (S)-5-((((6-(((S)-4-(5-(((1-acetylpiperidin-4-yl)amino)methyl)-3′-chloro-6-methoxy-[2,4′-bipyridin]-2′-yl)-2,3-dihydro-1H-inden-1-yl)oxy)-2-methoxy-5-(trifluoromethyl)pyridin-3-yl)methyl)amino)methyl)pyrrolidin-2-one] | 0.8 | – | – | –
10 | COc1cc(-c2ncnc(-c3cccc(-c4ccc(CNC[C@@H]5CCC(=O)N5)c(OC)n4)c3Cl)c2Cl)ccc1CN1CC2(CNC(=O)C2)C1 [Example 742, (S)-2-(4-(5-Chloro-6-(2-chloro-3-(6-methoxy-5-((((5-oxopyrrolidin-2-yl)methyl)amino)methyl)pyridin-2-yl)phenyl)pyrimidin-4-yl)-2-methoxybenzyl)-2,6-diazaspiro[3.4]octan-7-one] | – | 28.6 | – | –
11 | COc1cc(-c2ncnc(-c3cccc(-c4ccc(CN5CC6(CCC(=O)N6)C5)c(OC)n4)c3Cl)c2OC)ccc1CN1CC2(CCC(=O)N2)C1 [Example 743, 2-((6-(2-Chloro-3-(5-methoxy-6-(3-methoxy-4-((6-oxo-2,5-diazaspiro[3.4]octan-2-yl)methyl)phenyl)pyrimidin-4-yl)phenyl)-2-methoxypyridin-3-yl)methyl)-2,5-diazaspiro[3.4]octan-6-one] | – | ≥ 10000 | – | –
12 | COc1cc(-c2nccc(-c3cccc(NC(=O)c4ccc(CNCCO)cn4)c3C)c2Cl)ccc1CN1CC2(CNC(=O)C2)C1 [Example 744, N-(3-(3-Chloro-2-(3-methoxy-4-((7-oxo-2,6-diazaspiro[3.4]octan-2-yl)methyl)phenyl)pyridin-4-yl)-2-methylphenyl)-5-(((2-hydroxyethyl)amino)methyl)picolinamide] | – | 154 | – | –
13 | COc1cc(-c2nccc(-c3cccc(NC(=O)c4ccc(CNC[C@@H]5CCC(=O)N5)cn4)c3C)c2Cl)ccc1CNC1CCN(C(C)=O)CC1 [Example 747, (S)—N-(3-(2-(4-(((1-acetylpiperidin-4-yl)amino)methyl)-3-methoxyphenyl)-3-chloropyridin-4-yl)-2-methylphenyl)-5-((((5-oxopyrrolidin-2-yl)methyl)amino)methyl)picolinamide] | – | 825 | – | –
14 | COc1cc(-c2nccc(-c3cccc(NC(=O)c4ccc(CNC[C@@H]5CCC(=O)N5)cn4)c3C)c2Cl)ccc1CNC1CCOCC1 [Example 748, (S)—N-(3-(3-chloro-2-(3-methoxy-4-(((tetrahydro-2H-pyran-4-yl)amino)methyl)phenyl)pyridin-4-yl)-2-methylphenyl)-5-((((5-oxopyrrolidin-2-yl)methyl)amino)methyl)picolinamide] | – | 1000 | – | –
15 | COc1cc(-c2nccc(-c3cccc(NC(=O)c4ccc(CNC[C@@H]5CCC(=O)N5)cn4)c3C)c2Cl)ccc1CNCCO [Example 750, (S)—N-(3-(3-Chloro-2-(4-(((2-hydroxyethyl)amino)methyl)-3-methoxyphenyl)pyridin-4-yl)-2-methylphenyl)-5-((((5-oxopyrrolidin-2-yl)methyl)amino)methyl)picolinamide] | – | 703 | – | –
16 | CNCc1ccc(C(=O)Nc2cccc(-c3ccnc(-c4ccc(CNC[C@@H]5CCC(=O)N5)c(OC)c4)c3Cl)c2Cl)nc1 [Example 751, (S)—N-(2-Chloro-3-(3-chloro-2-(3-methoxy-4-((((5-oxopyrrolidin-2-yl)methyl)amino)methyl)phenyl)pyridin-4-yl)phenyl)-5-((methylamino)methyl)picolinamide] | – | 5.68 | – | –
17 | COc1cc(-c2nccc(-c3cccc(NC(=O)c4ccc(C(=O)O)cn4)c3Cl)c2Cl)ccc1CNC[C@@H]1CCC(=O)N1 [Example 752, (S)-6-((2-Chloro-3-(3-chloro-2-(3-methoxy-4-((((5-oxopyrrolidin-2-yl)methyl)amino)methyl)phenyl)pyridin-4-yl)phenyl)carbamoyl)nicotinic acid] | – | 1030 | – | –
18 | COc1cc(-c2nccc(-c3cccc(NC(=O)c4ccc(CNCCO)cn4)c3Cl)c2Cl)ccc1CN1CC2(CNC(=O)C2)C1 [Example 754, N-(2-Chloro-3-(3-chloro-2-(3-methoxy-4-((7-oxo-2,6-diazaspiro[3.4]octan-2-yl)methyl)phenyl)pyridin-4-yl)phenyl)-5-(((2-hydroxyethyl)amino)methyl)picolinamide] | – | 9.1 | – | –

— patent publication US20240246964A1 (Arbutus Biopharma Corporation, priority 2021, published 2024)
